This experiment addresses CCR2 (Homo sapiens (Human), UniProt P41597). Briefly: MCP-1 Receptor Binding Assay in THP-1 Cells. The following applies: 0.5 nM 125I labeled MCP-1, 2 hours at 30° C., average of the two most similar values where more than one IC50, read-out: Inhibition of MCP-1 Binding IC50 CCR2 Binding. How it is done: Compounds of the invention were subjected to various representative biological tests. […] MCP-1 Receptor Binding Assay in THP-1 Cells Human monocytic cell line THP-1 cells were obtained from American Type Culture Collection (Manassas, Va., USA). The THP-1 cells were grown in RPMI-1640 (RPMI: Roswell Park Memorial Institute Medium-cell culture growth media) supplemented with 10% fetal bovine serum in a humidified 5% CO2 atmosphere at 37° C. The cell density was maintained between […].
THP-1 (cells were incubated with 0.5 nM ^125I labeled MCP-1 (Perkin-Elmer Life Sciences, Inc. Boston, Mass.) in the presence of varying concentrations of either unlabeled MCP-1 (R & D Systems, Minneapolis, Minn.) or test compound for 2 hours at 30° C. in a 96 well plate. Cells were then harvested onto a filter plate, dried, and 20 μL of Microscint 20 was added to each well. Plates were counted in a TopCount NXT, Microplate Scintillation & Luminescence Counter (Perkin-Elmer Life Sciences, Inc. Boston, Mass.). Blank values (buffer only) were subtracted from all values and drug treated values were compared to vehicle treated values. 1 μM cold MCP-1 was used for nonspecific binding.
CCR2, sequence (P41597 other isoform, or with tags, fused parts or gaps isoform P41597-2): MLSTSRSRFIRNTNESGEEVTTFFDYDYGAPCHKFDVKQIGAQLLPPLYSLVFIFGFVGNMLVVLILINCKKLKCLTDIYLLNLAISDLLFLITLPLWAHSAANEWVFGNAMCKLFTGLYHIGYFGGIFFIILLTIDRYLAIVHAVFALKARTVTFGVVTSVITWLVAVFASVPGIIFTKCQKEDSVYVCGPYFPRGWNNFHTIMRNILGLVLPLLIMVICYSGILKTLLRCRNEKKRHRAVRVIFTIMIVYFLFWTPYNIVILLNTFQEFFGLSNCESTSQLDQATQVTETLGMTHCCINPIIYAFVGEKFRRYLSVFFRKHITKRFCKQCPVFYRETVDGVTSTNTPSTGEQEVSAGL
In the case of `NC(=O)C(NC1CCC(c2c[nH]c3ccccc23)CC1)C1CCN(C(=O)/C=C/c2ccc(OC(F)(F)F)cc2)CC1` (stereo not drawn) [Example 21, 2-[4-(1H-Indol-3-yl)-cyclohexylamino]-2-[1-(trans-4-(trifluoromethoxy)cinnamoyl)piperidin-4-yl]-acetamide], the IC50 (as a rule, the concentration that inhibits the measured activity by half) was 492 nM.

`NC(=O)C(NC1CCC(c2c[nH]c3ccncc23)CC1)C1CCN(C(=O)Nc2ccc(Cl)c(Cl)c2)CC1` (stereo not shown) [Example 40, 2-[4-(1H-pyrrolo[3,2-c]pyridin-3-yl)cyclohexyl]amino-2-[N-(3,4-dichlorophenyl)piperidine-1-carboxamid-4-yl]-acetamide]: the IC50 was found to be 40 nM.

Turning to `NC(=O)C(NC1CCC(c2c[nH]c3ccccc23)CC1)C1CCN(C(=O)/C=C/c2ccc3c(c2)CCO3)CC1` (stereo not drawn) [Example 15, 2-[4-(1H-Indol-3-yl)-cyclohexylamino]-2-[1-(trans-3-(2,3-dihydrobenzofuran-5-yl)prop-2-enoyl)piperidin-4-yl]-acetamide], the IC50 was determined as 149 nM.

Regarding `NC(=O)C(NC1CCC(c2c[nH]c3ccccc23)CC1)C1CCN(C(=O)/C=C/c2cccc(C(F)(F)F)c2)CC1` (stereo not drawn) [Example 10, 2-[4-(1H-Indol-3-yl)-cyclohexylamino]-2-[1-(trans-3-{trifluoromethyl}-cinnamoyl)piperidin-4-yl]-acetamide], the IC50 stood at 75 nM.

`NC(=O)C(NC1CCC(c2c[nH]c3ccccc23)CC1)C1CCN(C(=O)/C=C/c2ccccc2F)CC1` (stereo not drawn) [Example 8, 2-[4-(1H-Indol-3-yl)-cyclohexylamino]-2-[1-(trans-2-fluorocinnamoyl)-piperidin-4-yl]-acetamide]: the IC50 was determined as 270 nM.

For `NC(=O)C(NC1CCC(c2c[nH]c3ccccc23)CC1)C1CCN(C(=O)Nc2ccc(F)c(F)c2)CC1` (stereo not shown) [Example 32, 2-[4-(1H-Indol-3-yl)-cyclohexylamino]-2-[N-(3,4-difluorophenyl)piperidine-1-carboxamid-4-yl]-acetamide], the IC50 was determined as 807 nM.

On to `NC(=O)C(NC1CCC(c2c[nH]c3ccccc23)CC1)C1CCN(C(=O)/C=C/c2ccc3c(c2)OC(F)(F)O3)CC1` (stereo not drawn) [Example 17, 2-[4-(1H-Indol-3-yl)-cyclohexylamino]-2-[1-(trans-3-(2,2-difluoro-1,3-benzodioxol-5-yl)prop-2-enoyl)piperidin-4-yl]-acetamide], for which the IC50 was found to be 177 nM.

As to `NC(=O)C(NC1CCC(c2c[nH]c3ccccc23)CC1)C1CCN(C(=O)Nc2ccc(Cl)c(Cl)c2)CC1` (single isomer, unassigned) [Example 4a, 2-[4-(1H-Indol-3-yl)-cyclohexylamino]-2-[N-(3,4-dichlorophenyl)piperidine-1-carboxamid-4-yl]-acetamide], the IC50 was found to be 470 nM.

In the case of `NC(=O)C(NC1CCC(c2c[nH]c3cccnc23)CC1)C1CCN(C(=O)Nc2ccc(Cl)c(Cl)c2)CC1` (stereo not drawn) [Example 42, 2-[trans-4-(1H-pyrrolo[3,2-b]pyridin-3-yl)cyclohexyl]amino-2-[N-(3,4-dichlorophenyl)piperidine-1-carboxamid-4-yl]-acetamide], the IC50 came out at 87 nM.

With `NC(=O)C(NC1CCC(c2c[nH]c3cccnc23)CC1)C1CCN(C(=O)/C=C/c2cc(F)c(F)c(F)c2)CC1` (single isomer, unassigned) [Example 39b, 2-[4-(1H-pyrrolo[3,2-b]pyridin-3-yl)cyclohexyl]amino-2-[1-(trans-3,4,5-trifluorocinnamoyl)-piperidin-4-yl]-acetamide], the IC50 stood at 600 nM.

As to `NC(=O)C(NC1CCC(c2c[nH]c3ncccc23)CC1)C1CCN(C(=O)/C=C/c2cc(F)cc(F)c2)CC1` (stereo not drawn) [Example 46, R,S-2-[4-(1H-pyrrolo[2,3-b]pyridin-3-yl)cyclohexyl]amino-2-[1-(trans-3,5-difluorocinnamoyl)-piperidin-4-yl]-acetamide], the IC50 turned out to be 330 nM.

Consider `O=C(NO)C(NC1CCC(c2c[nH]c3ccccc23)CC1)C1CCN(C(=O)/C=C/c2cc(F)c(F)c(F)c2)CC1` (stereo not drawn) [Example 51, N-Hydroxy-2-{[4-(1H-Indol-3-yl)-cyclohexylamino]-2-[1-(trans-3,4,5-trifluorocinnamoyl)-piperidin-4-yl]}-acetamide], for which the IC50 was determined as 665 nM.

Consider `NC(=O)C(NC1CCC(c2c[nH]c3ccccc23)CC1)C1CCN(C(=O)Nc2ccc(F)cc2)CC1` (stereo not shown) [Example 29, 2-[4-(1H-Indol-3-yl)-cyclohexylamino]-2-[N-(4-fluorophenyl)piperidine-1-carboxamid-4-yl]-acetamide], for which the IC50 amounted to 669 nM.

For `NC(=O)C(NC1CCC(c2c[nH]c3ccncc23)CC1)C1CCN(C(=O)/C=C/c2ccc(F)cc2)CC1` (single isomer, unassigned) [Example 47a, 2-[4-(1H-pyrrolo[3,2-c]pyridin-3-yl)cyclohexyl]amino-2-[1-(trans-4-fluorocinnamoyl)-piperidin-4-yl]-acetamide], the IC50 turned out to be 405 nM.

With `COc1ccc(C2CCC(NC(C(N)=O)C3CCN(C(=O)/C=C/c4cc(F)c(F)c(F)c4)CC3)CC2)cn1` (stereo not drawn) [Example 50, 2-[4-(6-methoxypyridin-3-yl)cyclohexyl]amino-2-[1-(trans-3,4,5-trifluorocinnamoyl)-piperidin-4-yl]-acetamide], the IC50 was 635 nM.

As to `NC(=O)C(NC1CCC(c2c[nH]c3ccccc23)CC1)C1CCN(C(=O)/C=C/c2ccc3c(c2)OCCO3)CC1` (stereo not drawn) [Example 23, 2-[4-(1H-Indol-3-yl)-cyclohexylamino]-2-[1-(trans-3-[2,3-dihydro-1,4-benzodioxin-7-yl]prop-2-enoyl)piperidin-4-yl]-acetamide], the half-maximal inhibitory concentration (IC50) is 602 nM.

On to `NC(=O)C(N[C@H]1CC[C@H](c2c[nH]c3cccnc32)CC1)C1CCN(C(=O)/C=C/c2ccccc2)CC1` (stereo partly drawn) [Example 43, R,S-2-[trans-4-(1H-pyrrolo[3,2-b]pyridin-3-yl)cyclohexyl]amino-2-[1-(trans-cinnamoyl)-piperidin-4-yl]-acetamide], for which the IC50 worked out at 122 nM.

`NC(=O)C(NC1CCC(c2c[nH]c3ccccc23)CC1)C1CCN(C(=O)/C=C/c2ccc(Cl)cc2)CC1` (stereo not drawn) [Example 14, 2-[4-(1H-Indol-3-yl)-cyclohexylamino]-2-[1-(trans-4-chloro-cinnamoyl)piperidin-4-yl]-acetamide]: the IC50 stood at 130 nM.

Take `NC(=O)C(NC1CCC(c2c[nH]c3ccccc23)CC1)C1CCN(C(=O)/C=C/c2ccc3c(c2)CCCO3)CC1` (stereo not shown) [Example 33, 2-[4-(1H-indol-3-yl)-cyclohexylamino]-2-{1-[(2E)-3-(3,4-dihydro-2H-chromen-6-yl)prop-2-enoyl]piperidin-4-yl}acetamide]: the IC50 was 960 nM.

Regarding `Cc1cccc(NC(=O)N2CCC(C(NC3CCC(c4c[nH]c5cccnc45)CC3)C(N)=O)CC2)c1` (stereo not shown) [Example 48, 2-[4-(1H-pyrrolo[3,2-b]pyridin-3-yl)cyclohexyl]amino-2-[N-(3-tolyl)piperidine-1-carboxamid-4-yl]-acetamide], the IC50 was found to be 590 nM.

As for `COC(=O)C(N[C@H]1CC[C@H](c2c[nH]c3ccccc32)CC1)C1CCN(C(=O)/C=C/c2cc(F)cc(F)c2)CC1` (stereo partly drawn) [Example 24, Methyl 2-[4-(1H-indol-3-yl)-trans-cyclohexylamino]-2-[1-(trans-3,5-difluorocinnamoyl)piperidin-4-yl]-acetate], the IC50 worked out at 390 nM.

For `NC(=O)C(N[C@H]1CC[C@H](c2c[nH]c3ccncc32)CC1)C1CCN(C(=O)/C=C/c2cc(F)c(F)c(F)c2)CC1` (stereo partly drawn) [Example 41, R,S-2-[trans-4-(1H-pyrrolo[3,2-c]pyridin-3-yl)cyclohexyl]amino-2-[1-(trans-3,4,5-trifluorocinnamoyl)-piperidin-4-yl]-acetamide], the IC50 stood at 83 nM.

Source of the values: patent US8921559B2, “4-substituted-cyclohexylamino-4-piperidinyl-acetamide antagonists of CCR2” (Janssen Pharmaceutica NV, priority 2010, dated 2014).
